{"source": "patent US8053424B2", "about": "“Composition and method of treating hearing loss” (The Regents of the University of Michigan, priority 2006, dated 2011)", "tested_on": "guinea pigs", "experiment": "Threshold shift by auditory brainstem response (ABR) testing after 120 dB SPL octave band noise", "type": "in vivo, guinea pigs (NIH outbred strain)", "settings": "FIG. 1-3 comparison between treatments", "protocol": "In guinea pig studies, hearing loss and the efficacy of the composition of the subject invention for treating hearing loss is measured as an average difference in threshold shift from baseline threshold sensitivity at 4, 8, and 16 kHz, as compared to an untreated control, after exposure to 120 decibel SPL Octave Band Noise centered at 4 kHz for five hours.\nTo obtain those results, the composition is typically injected each day, twice a day, for three days prior to exposure to the noise and injected again each day for at least five days, typically up to ten days, subsequent to the exposure to the noise. The threshold shift is measured 10 days after exposure to the noise using auditory brainstem response (ABR) testing.\nIn order to determine efficacy of the composition of the present invention in treating hearing loss, baseline threshold sensitivity of the guinea pigs is measured binaurally using auditory brainstem response testing at 4, 8, and 16 kHz.\nFor Example 1, the guinea pigs are first treated each day, twice a day, for three days prior to exposure to 120-dB SPL Octave Band Noise centered at 4 kHz for 5 hours. The noise causes trauma to middle or inner ears of the guinea pigs and is sufficient to cause permanent threshold shift, i.e., permanent hearing loss. […] Ten days after the noise exposure, auditory sensitivity is measured using ABR. […]"}
{"compound": "O=C([O-])c1ccccc1O.[Na+]", "note": "[salicylate, sodium salicylate]", "values": [{"measurement": "effect in minimizing threshold shift (additive effect), in words", "value": "do not exhibit the same additive effect"}]}
{"compound": "Cc1c(C)c2c(c(C)c1O)CCC(C)(C(=O)O)O2", "note": "(centres unmarked) [Trolox®]", "values": [{"measurement": "effect in minimizing threshold shift (additive effect), in words", "value": "do not exhibit the same additive effect"}]}
